“And” between values parts separate entries of the source, which are not always exact repeats. Equal entries are not always repeated.
How the values were obtained:
[1] = system: S. griseolus PH2003 pCS325; assay: Percent conversion of herbicides by cultures (Example 16); assay type: in vitro ADME, Streptomyces griseolus; conditions: 3.0 mg herbicide in 25 ml broth; 24 hours
Description: (§1) Separate cultures (50 ml) inoculated with S. lividans C37, S. lividans transformed with pCAO200SU1-FeS-B#9, S. griseolus ATCC11796, S. griseolus PH2003 transformed with pIJ425, or S. ariseolus PH2003 transformed with pCS325 were cultured in sporulation broth for 18 hours at 30° C. with shaking. Each culture was then resuspended in 25 ml fresh sporulation broth and 3.0 mg herbicide added. In the case of cultures of S. griseolus ATCC11796, a second culture containing herbicide and 3.0 mg 10001 was also prepared. Each culture was reincubated for 24 hours, then an aliquot of the medium was withdrawn and analyzed by HPLC. The percent conversion of herbicide was determined.

[2] = system: S. griseolus PH2003 pIJ425; assay: as above; assay type: in vitro ADME, Streptomyces griseolus; conditions: 3.0 mg herbicide in 25 ml broth; 24 hours
Description: as §1

[3] = system: S. griseolus ATCC 11796, 10001 added; assay: as above; assay type: in vitro ADME, Streptomyces griseolus; conditions: 3.0 mg herbicide and 3.0 mg 10001 in 25 ml broth; 24 hours
Description: as §1

S. griseolus ATCC 11796 = assay: as above; assay type: in vitro ADME, Streptomyces griseolus; conditions: 3.0 mg herbicide in 25 ml broth; 24 hours
Description: as §1

[4] = system: transformed tobacco seedlings; assay: Growth of transformed tobacco seed on medium with 10001 (Example 24); assay type: in vivo, Nicotiana tabacum; conditions: AGS502 (no P450 gene), 100 days
Description: Tobacco seed from plants transformed with several P450SU1 and P450SU1+FeS-Bconstructions were tested for their ability to grow on tissue culture medium supplemented with compound 10001. Seed was placed on medium containing: 0, 5, 10, 20, and 40 nM of compound 10001. After 100 days, the plants were visually rated for their resistance (due to herbicide detoxification) to the herbicide treatment. All plants grown in the absence of herbicide and those treated with the lowest levels (5 nM and 10 nM) of 10001 had grown so large that no comparative rating was possible. The severely growth inhibited plants (those grown in the presence of 20 nM and 40 nM of compound 10001) were scored by comparing them to AGS502 plants (transformed without P450 gene) in Table 23.
SCORING SYSTEM: Visual comparison to AGS502 plants which uniformly appeared:
Ratings: 0=essentially identical to AGS 502 controls; 1=marginally larger ([…]1.2×) than AGS502; 2=clearly larger (1.2 to 2×) than AGS502; 3=substantially larger (>2×) than AGS502.

S. lividans C37 = assay: Percent conversion of herbicides by cultures (Example 16); assay type: in vitro ADME, Streptomyces lividans; conditions: 3.0 mg herbicide in 25 ml broth; 24 hours
Description: as §1

[5] = system: S. lividans pCAO200SU1-FeS-B#9; assay: as above; assay type: in vitro ADME, Streptomyces lividans; conditions: 3.0 mg herbicide in 25 ml broth; 24 hours
Description: as §1

[6] = system: S. lividans pCAO200SU2-FeS-A#11; assay: Sulfonylurea metabolism by washed cell suspension (Examples 11-12); assay type: in vitro ADME, Streptomyces lividans; conditions: for concentration in supernatant: substrate 10010
[7] = system: Tobacco plants (Nicotiana tabactum cv. Wisconsin 38); assay: Foliar spray of 10015 on P450SU1 transformed tobacco plants (Example 21); assay type: in vivo, Nicotiana tabacum; conditions: individual plants
Text: Tobacco plants (Nicotiana tabactum cv. Wisconsin 38) transformed with plasmids pAGS112, pSU18, pSSU-SU111, pCab-SU121 or pCab-SU131 (singly) and accumulating the P450SU1 protein were identified by Western blot analysis. Seed arising from the self pollination of individual primary transformants designated AGS112, SU18.8, SU18.14, SSU-SU111.5, […], and Cab-SU131.5 gave rise to the plants described in this Example. The progeny of primary AGS112 and Cab-SU121.5 transformants segregated for single copy kanamycin resistance. In contrast, the progeny of the plants transformed with plasmids containing P450SU1 (other than Cab-SU121.5) segregated for multicopy kanamycin resistance. Thus, most plants containing the gene encoding P450SU1 and sprayed with 10015 in this Example likely contained at least one, and in many cases multiple, copies of P450SU1, while very few individuals likely carried no copies of the gene encoding P450SU1.
Seed from transformed and nontransformed tobacco plants was germinated in a commercial potting mix Metro-Mix® 350 for 25 days. Individual plants were then transferred to 4 inch×4 inch pots containing Metro Mix® 350 and were allowed to grow in the greenhouse for an additional 22 days at which time most plants contained 4-5 fully expanded leaves. A developmentally uniform population of plants was selected from among these transplants and the individual plants were then sprayed with a carrier solution of AGWT (90.2% Acetone: 4.8% Glycerol: 4.8% Water: 0.24% Tween 20 by volume) containing sulfonylurea compound 10015 at concentrations of 1,4, or 16 grams/hectare (g/ha). The sprayed plants were returned to the greenhouse and rated for injury 22 days later.

## CCOC(=O)c1ccccc1S(=O)(=O)NC(=O)Nc1nc(Cl)cc(OC)n1 [compound 10001, N-[(4-chloro-6-methoxy-pyrimidin-2-yl)aminocarbonyl]-2-ethoxycarbonylbenzenesulfonamide]
[1]
  Percent Conversion: 100%
[2]
  Percent Conversion: 100%
[3]
  Percent Conversion: 100%
S. griseolus ATCC 11796
  Percent Conversion: 100%
[4]; 10001 20 nM
  appearance of AGS502 plants: ~1 cm tall, 6 leaves ~1 cm diameter
[4]; 10001 40 nM
  appearance of AGS502 plants: ~0.5 cm tall, 6 leaves ~0.3 cm diameter, chlorotic
S. lividans C37
  Percent Conversion: 0%
[5]
  Percent Conversion: 56%

## COC(=O)c1ccccc1S(=O)(=O)NC(=O)Nc1nc(C)cc(C)n1 [compound 10010, N-[(4,6-dimethylpyrimidin-2-yl)aminocarbonyl]-2-methoxycarbonylbenzenesulfonamide]
[6]; 2 h
  concentration in supernatant: 90 µM
[6]; 4 h
  concentration in supernatant: 84 µM
[6]; 6 h
  concentration in supernatant: 72 µM
[6]; summary of Example 12
  metabolism compared with uninduced S. griseolus PH2001: more readily than uninduced S. griseolus PH2001

## COc1cc(OC)nc(NC(=O)NS(=O)(=O)c2cccc3c2S(=O)(=O)N(C(C)C)C3)n1 [compound 10015]
[7]; 1 g/ha, AGS 112, 22 days
  % Damage: 0% and 10%
[7]; 1 g/ha, Cab-SU111.8, 22 days
  % Damage: 90% and 95%
[7]; 1 g/ha, Cab-SU121.5, 22 days
  % Damage: 85% and 95% and 20%
[7]; 1 g/ha, Cab-SU131.5, 22 days
  % Damage: 50% and 95% and 90%
[7]; 1 g/ha, SSU-SU111.5, 22 days
  % Damage: 95%
[7]; 1 g/ha, SU18.14, 22 days
  % Damage: 40%
[7]; 1 g/ha, SU18.8, 22 days
  % Damage: 10%
[7]; 1 g/ha, W38, 22 days after spraying
  % Damage: 0% and 10%
[7]; 4 g/ha, AGS 112, 22 days
  % Damage: 0% and 40%
[7]; 4 g/ha, Cab-SU111.8, 22 days
  % Damage: 0% and 99%
[7]; 4 g/ha, Cab-SU121.5, 22 days
  % Damage: 90% and 100% and 95%
[7]; 4 g/ha, Cab-SU131.5, 22 days
  % Damage: 40% and 100%
[7]; 4 g/ha, SSU-SU111.5, 22 days
  % Damage: 100%
[7]; 4 g/ha, SU18.14, 22 days
  % Damage: 70%
[7]; 4 g/ha, SU18.8, 22 days
  % Damage: 60%
[7]; 4 g/ha, W38, 22 days
  % Damage: 0% and 10% and 20% and 30%

— US5349127A, “Expression of herbicide metabolizing cytochromes P450” (priority 1992, dated 1994)
